The record followed here is patent US20160151337A1, “ANNELATED PYRROLES AND THEIR USE AS CRAC INHIBITORS” (Grünenthal GmbH, priority 2013, published 2016).

One experiment addresses T1, CRAC channel (Homo sapiens, UniProt Q96D31).
T1 construct: endogenous in cells; host or cells: HEK293 (ECACC), untransfected
The experiment is described as follows: HEK Calcium Influx Assay (FLIPR), inhibition of store-operated Ca2+ entry after thapsigargin store depletion. In kind it is cell-based. As to conditions: 10 μM compound, HEK293 cells, read-out: % inhib. [@ 10 μM] FLIPR. On the procedure:
The effect of compounds of the invention on intracellular [Ca^2+] was tested in the HEK293 cell line (ECACC).
HEK293 cells were cultured in DMEM/F12/Glutamax (Gibco) containing 10% FCS (Gibco), and maintained at 37° C., 5% CO2. Cell were split twice a week [3*10^6 (Mon-Thu) and 1*10^6 (Thu-Mon) cells/50 ml medium in 1-175 ZK culture flasks, respectively]. Twenty four hours pre-experiment, cells were seeded on 96 well plates (Poly-D-Lysine 96 well Black/Clear Plate, BD Biocoat REF 356640) at a density of 40,000 cells/well in DMEM/F12 (Gibco) containing 10% FCS (Gibco), and maintained at 37° C., 5% CO2.
Prior to store-depletion, cell culture medium was removed and cells were loaded with the Calcium-sensitive fluorescent dye comprised within the Calcium-4-assay kit (Molecular Devices) in nominally Ca^2+-free HBS buffer (140 mM NaCl, 4 mM KCl, 0.2 mM MgCl2, 11 mM D-glucose, and 10 mM HEPES, pH 7.4) according to manufacturer's instruction for 60 min at 37° C., 5% CO2.
Passive depletion of intracellular Ca^2+-stores was then triggered by employing the SERCA inhibitor thapsigargin (2 μM final) for 10 min in the dark (RT). To prevent immediate Ca^2+-entry via the activated store-operated channels (SOCs), cells were maintained in Ca^2+-free HBS buffer comprising 100 μM EGTA during store-depletion.
Intracellular changes in [Ca^2+] were subsequently monitored with the FLIPR device (Molecular Devices). In brief, baseline imaging post-store depletion was allowed for 1 min before adjusting the extracellular buffer to 3 mM CaCl2. Increases in intracellular [Ca^2+] due to pre-activated SOC channels were monitored for 15 min until intracellular Ca^2+ levels had declined into a steady-state. Finally, compounds were administered, and Ca^2+ signals were recorded for additional 10 min.
Inhibition of endogenous SOC in HEK293 cells was quantified employing the average Ca^2+ signal measured from 9.5-10 min post-administration. Zero percent inhibition (MAX) was defined as the Ca^2+ signal recorded from wells to which DMSO-only had been added instead of compound. Hundred percent inhibition (MIN) was defined as the signal obtained from wells in which cells haven't been treated with TG prior to Ca^2+ addition and to which DMSO-only had been added instead of compound. For routine IC50 determinations of compounds, 8 concentrations of a serial dilution (1:3.16) were tested, starting off from 10 μM. Reliable IC50's could consequently be determined only, if they were at least sub 2.5-3 μM.

Experiment [1] deals with Interleukin-2 (IL-2) production/release in Jurkat T cells. In words: Jurkat IL-2 Production Assay (PHA-stimulated, IL-2 AlphaLisa). The experiment is classed as cell-based. As to conditions: Homo sapiens, PHA 15 μg/ml, 22 h, inhibition of IL-2 production. How it is done:
The effect of compounds of the invention on Interleukin-2 (IL-2) production/release was tested in the Jurkat T cell line (ECACC) clone E6-1.
Jurkat T cells were cultured in DMEM/F12/Glutamax (Gibco) containing 10% FCS (Gibco), and maintained at 37° C., 5% CO2. Cells were split twice a week [5*10^6 (Mon-Thu) and 1*10^7 (Thu-Mon) cells/50 ml medium in 1-175 ZK culture flasks, respectively].
Prior to experiment, cells were seeded on 96 well plates (Cellstar 96 Well; Cat No. 655180, Greiner bio-one) at a density of 5*10^5 cells/well in DMEM/F12/Glutamax (Gibco) containing 10% FCS (Gibco), and incubated for 60 min at 37° C., 5% CO2. Subsequently, compounds were added and cells were allowed to incubate for 30 min at 37° C., 5% CO2. Cells were then stimulated with 15 μg/ml Phyto-hemagglutinin (PHA; Sigma) for 22 hours at 37° C., 5% CO2.
Before sampling of the supernatants, cells were spun down (200*g/5 min/RT). The amount of IL-2 released into the supernatant was quantified with the human IL-2 AlphaLisa kit (Perkin Elmer) according to manufacturer's instructions. Luminescence proximity measurements were carried out in the Synergy H4 reader (BioTek) employing the fluorescence setting of the reader (ex: 680/30 nm; em: 620/40 nm).
Inhibition of IL-2 production/release in/from Jurkat T cells was quantified as follows: Zero percent inhibition (MAX) was defined as the [IL-2] determined in supernatants derived from cells to which PHA & DMSO-only had been added instead of compound. Hundred percent inhibition (MIN) was defined as the [IL-2] determined in supernatants derived from cells that had been pre-treated with 1 μM CyclosporineA (Sigma) before the addition of 15 μg/ml PHA.
For routine IC50 determinations of compounds, 8 concentrations of a serial dilution (1:3.16) were tested, starting off from 10 μM.
For orientation: Alpha assays give light when donor and acceptor beads are brought close together.

T1 sequence (Q96D31 whole entry): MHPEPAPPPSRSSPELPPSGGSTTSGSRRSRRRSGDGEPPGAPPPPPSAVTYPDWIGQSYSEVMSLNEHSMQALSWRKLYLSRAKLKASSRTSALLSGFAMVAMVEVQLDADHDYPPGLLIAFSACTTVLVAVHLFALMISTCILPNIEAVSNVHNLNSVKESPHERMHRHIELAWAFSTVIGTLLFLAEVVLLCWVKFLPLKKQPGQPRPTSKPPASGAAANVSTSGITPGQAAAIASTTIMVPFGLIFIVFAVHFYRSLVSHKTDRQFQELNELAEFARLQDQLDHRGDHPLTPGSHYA

As to `Cc1cc(S(C)(=O)=O)ncc1N1CCc2[nH]c(-c3c(F)cccc3F)cc2C1` [Example 16, 2-(2,6-Difluoro-phenyl)-5-(4-methyl-6-methylsulfonyl-pyridin-3-yl)-4,5,6,7-tetrahydro-1H-pyrrolo[3,2-c]pyridine], the inhibition at 10 µM at CRAC channel was greater than 70%. In experiment [1], the IC50 was less than 0.5 µM.
Regarding `Cc1nc(-c2cccnc2)sc1N1CCc2[nH]c(-c3c(F)cccc3F)cc2C1` [Example 18, 5-[2-(2,6-Difluoro-phenyl)-4,5,6,7-tetrahydro-1H-pyrrolo[3,2-c]pyridin-5-yl]-4-methyl-2-pyridin-3-yl-thiazole], the inhibition at 10 µM at CRAC channel is greater than 70%. In addition, the IC50 in experiment [1] was less than 0.5 µM.
With `Cn1nc(C(F)(F)F)cc1N1CCc2[nH]c(-c3c(F)cccc3F)cc2C1` [Example 19, 2-(2,6-Difluoro-phenyl)-5-[2-methyl-5-(trifluoromethyl)-2H-pyrazol-3-yl]-4,5,6,7-tetrahydro-1H-pyrrolo[3,2-c]pyridine], the inhibition at 10 µM at CRAC channel is greater than 70%. Also, the IC50 in experiment [1] was less than 0.5 µM.
The corresponding values for `Cc1cc2c(cc1N1CCc3[nH]c(-c4c(F)cccc4F)cc3C1)OC(F)(F)O2` [Example 20, 5-(2,2-Difluoro-6-methyl-1,3-benzodioxol-5-yl)-2-(2,6-difluoro-phenyl)-4,5,6,7-tetrahydro-1H-pyrrolo[3,2-c]pyridine] are less than 50% and 1 to 5 µM.
The corresponding values for `COc1ccc(OC)c(N2CCc3[nH]c(-c4c(F)cccc4F)cc3C2)c1` [Example 21, 2-(2,6-Difluoro-phenyl)-5-(2,5-dimethoxyphenyl)-4,5,6,7-tetrahydro-1H-pyrrolo[3,2-c]pyridine] are greater than 70% and 1 to 5 µM.
For `Cc1ccccc1N1CCc2[nH]c(-c3c(F)cccc3F)cc2C1` [Example 22, 2-(2,6-Difluoro-phenyl)-5-o-tolyl-4,5,6,7-tetrahydro-1H-pyrrolo[3,2-c]pyridine], on CRAC channel, the inhibition at 10 µM is greater than 70%. For the same compound, the IC50 in experiment [1] lay in the range of 1 to 5 µM.
As to `Cc1sc(-c2ccccc2)nc1N1CCc2[nH]c(-c3c(F)cccc3F)cc2C1` [Example 23, 4-[2-(2,6-Difluoro-phenyl)-4,5,6,7-tetrahydro-1H-pyrrolo[3,2-c]pyridin-5-yl]-5-methyl-2-phenyl-thaizole], on CRAC channel, the inhibition at 10 µM was less than 50%. The IC50 in experiment [1] was 1 to 5 µM.
`Cc1sc(-c2ccncc2)nc1N1CCc2[nH]c(-c3c(F)cccc3F)cc2C1` [Example 24, 4-[2-(2,6-Difluoro-phenyl)-4,5,6,7-tetrahydro-1H-pyrrolo[3,2-c]pyridin-5-yl]-5-methyl-2-pyridin-4-yl-thiazole]: at CRAC channel, the inhibition at 10 µM is greater than 70%. Moreover, the IC50 in experiment [1] was less than 0.5 µM.
Consider `Cc1nc(N2CCc3[nH]c(-c4c(F)cccc4F)cc3C2)ccc1Br` [Example 25, 5-(5-Bromo-6-methyl-pyridin-2-yl)-2-(2,6-difluoro-phenyl)-4,5,6,7-tetrahydro-1H-pyrrolo[3,2-c]pyridine], for which the inhibition at 10 µM at CRAC channel is less than 50%. In experiment [1], the half-maximal inhibitory concentration (IC50) was in the range of 1 to 5 µM.
In the case of `Cc1sc(-c2cnccn2)nc1N1CCc2[nH]c(-c3c(F)cccc3F)cc2C1` [Example 26, 4-[2-(2,6-Difluoro-phenyl)-4,5,6,7-tetrahydro-1H-pyrrolo[3,2-c]pyridin-5-yl]-5-methyl-2-pyrazin-2-yl-thiazole], the inhibition at 10 µM on CRAC channel was greater than 70%. The half-maximal inhibitory concentration (IC50) in experiment [1] was less than 0.5 µM.
As for `COc1cc(S(C)(=O)=O)ccc1N1CCc2[nH]c(-c3c(F)cccc3F)cc2C1` [Example 28, 2-(2,6-Difluoro-phenyl)-5-(2-methoxy-4-methylsulfonyl-phenyl)-4,5,6,7-tetrahydro-1H-pyrrolo[3,2-c]pyridine], the inhibition at 10 µM at CRAC channel is greater than 70%. The IC50 in experiment [1] lay in the range of 0.5 to 1 µM.
Turning to `Cc1sc(-c2cncnc2)nc1N1CCc2[nH]c(-c3c(F)cccc3F)cc2C1` [Example 30, 4-[2-(2,6-Difluoro-phenyl)-4,5,6,7-tetrahydro-1H-pyrrolo[3,2-c]pyridin-5-yl]-5-methyl-2-pyrimidin-5-yl-thiazole], the inhibition at 10 µM on CRAC channel was greater than 70%. Moreover, the IC50 in experiment [1] fell in the range of 0.5 to 1 µM.
As for `CCc1sc(-c2cccnc2)nc1N1CCc2[nH]c(-c3c(F)cccc3F)cc2C1` [Example 31, 4-[2-(2,6-Difluoro-phenyl)-4,5,6,7-tetrahydro-1H-pyrrolo[3,2-c]pyridin-5-yl]-5-ethyl-2-pyridin-3-yl-thiazole], the inhibition at 10 µM at CRAC channel is less than 50%. In addition, the 50% inhibitory concentration (IC50) in experiment [1] was less than 0.5 µM.
The corresponding values for `Cc1ccc(Cl)cc1N1CCc2[nH]c(-c3c(F)cccc3Cl)cc2C1` [Example 64, 2-(2-Chloro-6-fluoro-phenyl)-5-(5-chloro-2-methyl-phenyl)-4,5,6,7-tetrahydro-1H-pyrrolo[3,2-c]pyridine] are less than 50% and 1 to 5 µM.
Take `Cc1sc(-c2cccnc2)nc1N1CCc2[nH]c(-c3c(F)cccc3F)c(I)c2C1` [Example 66, 4-[2-(2,6-Difluoro-phenyl)-3-iodo-4,5,6,7-tetrahydro-1H-pyrrolo[3,2-c]pyridin-5-yl]-5-methyl-2-pyridin-3-yl-thiazole]: at CRAC channel, the inhibition at 10 µM is less than 50%. Besides, the half-maximal inhibitory concentration (IC50) in experiment [1] was 1 to 5 µM.
The corresponding values for `Cc1cc(C#N)c(F)cc1N1CCc2[nH]c(-c3c(F)cccc3F)cc2C1` [Example 67, 4-[2-(2,6-Difluoro-phenyl)-4,5,6,7-tetrahydro-1H-pyrrolo[3,2-c]pyridin-5-yl]-2-fluoro-5-methyl-benzonitrile] are less than 50% and 0.5 to 1 µM.
As to `Cc1cc(C#N)cnc1N1CCc2[nH]c(-c3c(F)cccc3F)cc2C1` [Example 68, 6-[2-(2,6-Difluoro-phenyl)-4,5,6,7-tetrahydro-1H-pyrrolo[3,2-c]pyridin-5-yl]-5-methyl-nicotinonitrile], the inhibition at 10 µM at CRAC channel is greater than 70%. The IC50 in experiment [1] was less than 0.5 µM.
`CCOc1cc(C)c(N2CCc3[nH]c(-c4c(F)cccc4F)cc3C2)cn1` [Example 69, 2-(2,6-Difluoro-phenyl)-5-(6-ethoxy-4-methyl-pyridin-3-yl)-4,5,6,7-tetrahydro-1H-pyrrolo[3,2-c]pyridine]: on CRAC channel, the inhibition at 10 µM is greater than 70%. In experiment [1], the IC50 fell in the range of 0.5 to 1 µM.
`Cc1cc([S+](C)[O-])ncc1N1CCc2[nH]c(-c3c(F)cccc3F)cc2C1` (stereo not shown) [Example 70, 2-(2,6-Difluoro-phenyl)-5-[4-methyl-6-(methylsulfinyl)-pyridin-3-yl]-4,5,6,7-tetrahydro-1H-pyrrolo[3,2-c]pyridine]: the inhibition at 10 µM at CRAC channel was greater than 70%. In addition, in experiment [1], the IC50 lay within 1 to 5 µM.
The corresponding values for `Cc1cc(Cl)c(F)cc1N1CCc2[nH]c(-c3c(F)cccc3F)cc2C1` [Example 71, 5-(4-Chloro-5-fluoro-2-methyl-phenyl)-2-(2,6-difluoro-phenyl)-4,5,6,7-tetrahydro-1H-pyrrolo[3,2-c]pyridine] are less than 50% and 1 to 5 µM.

For orientation: IC50 means the concentration that inhibits the measured activity by half.
